# Source: patent US8389276B2 (priority 2001, dated 2013)
# Like-named read-outs stand apart in the source and are kept apart here.
# Experiments:
# [1] = system: Bax/Bak doubly deficient cells; experiment: Death rate of Bax/Bak doubly deficient immortalized cells after death stimuli (DAPI staining, FACS); type: cell-based, mouse; conditions: Bax/Bak doubly deficient immortal cells, 24 hours, DAPI 1 μg/ml, FIG. 3A
# Description: (§1) This example relates to determining that immortalized Bax/Bak doubly deficient cells are resistant to wide variety of death stimuli, including BH-3 only proapoptotic proteins. To test whether immortal Bax/Bak double deficient cells behave like primary Bax/Bak double deficient cells in resisting intrinsic cell death stimuli, wild type and Bax/Bak doubly deficient cells were treated with serum deprivation, etoposide (100 μM), staurosporin (4 μM), or brefeldin A (10 μg/ml). 24 hours later, cells were stained with DAPI (1 μg/ml), and death rate determined by FACS. Wild type immortal cells were killed by each of these death stimuli. This is consistent with the findings in the primary MEF cells.
# wild type immortal cells = experiment: Death rate of wild type immortalized cells after death stimuli (DAPI staining, FACS); type: cell-based, mouse; conditions: 24 hours, DAPI 1 μg/ml, FIG. 3A
# Description: as §1
# [2] = system: primary fibroblasts isolated from Bax/Bak double deficient mice; type: cell-based, mouse
# Text: (§2) To study how the apoptotic machinery is regulated, mice deficient in both Bax and Bak have been produced. […] The characteristics of Bax/Bak double deficient mice are described in greater detail in our publications: Lindsten, T., Ross, A. J., King, A., Zong, W. X., Rathmell, J. C., Shiels, H. A., Ulrich, E., Waymire, K. G., Mahar, P., Frauwirth, K., Chen, Y., Wei, M., Eng, V. M., Adelman, D. M., Simon, M. C., Ma, A., Golden, J. A., Evan, G., Korsmeyer, S. J., MacGregor, G. R., and Thompson, C.
# [3] = system: thymocytes isolated from the Bax/Bak double deficient mice
# Text: as §2
# [4] = primary fibroblasts from Bax/Bak double deficient mice
compound,measurement,setting,value
C[C@H]1CCC/C=C/[C@@H]2C[C@H](O)C[C@H]2[C@H](O)/C=C/C(=O)O1 [brefeldin A],cell death (death rate by FACS),[1]; brefeldin A 10 μg/ml,survived
same,cell death (death rate by FACS),wild type immortal cells; brefeldin A 10 μg/ml,killed
same,resistance to death stimulus,[2]; [4],resistant
CN[C@@H]1C[C@H]2O[C@@](C)([C@@H]1OC)n1c3ccccc3c3c4c(c5c6ccccc6n2c5c31)C(=O)NC4 [staurosporin],cell death (death rate by FACS),[1]; staurosporin 4 μM,survived
same,cell death (death rate by FACS),wild type immortal cells; staurosporin 4 μM,killed
same,resistance to death stimulus,[2],resistant
COc1cc([C@@H]2c3cc4c(cc3[C@@H](O[C@@H]3O[C@@H]5CO[C@@H](C)O[C@H]5[C@H](O)[C@H]3O)[C@H]3COC(=O)[C@H]23)OCO4)cc(OC)c1O [etoposide],cell death (death rate by FACS),[1]; etoposide 100 μM,survived
same,resistance to induced cell death,[3],resistant
same,cell death (death rate by FACS),wild type immortal cells; etoposide 100 μM,killed
same,resistance to death stimulus,[2]; [4],resistant
tunicamycin,resistance to death stimulus,[2]; [4],resistant
tharpsigargin,resistance to death stimulus,[2]; [4],resistant
